This note sets out measurements from patent US9000027B2, “Chk1 suppresses a caspase-2 apoptotic response to DNA damage that bypasses p53, bcl-2 and caspase-3” (Dana-Farber Cancer Institute, Inc., priority 2008, dated 2015).

This data set deals with p53^e7/e7;chk1^MO cells grafted into p53^e7/e7 hosts. As to the kind of experiment: Blastula-cell transplantation (genetic chimeras), TUNEL after IR. Type of data set: in vivo, zebrafish. The settings on record: 12.5 Gy, n=102. An excerpt:
To determine whether the Chk1-antagonized pathway functions cell autonomously or non-cell autonomously, we generated genetic chimeras (see cell transplantation procedure in FIG. 3D and assay validation in FIG. 14). While p53^e7/e7;chk1^MO cells grafted into p53^e7/e7 hosts often stained TUNEL-positive after IR (39%, n=102), neighboring host cells were virtually never seen that stained TUNEL-positive (FIG. 3E, upper panels). In the reciprocal experiment, p53^e7/e7 cells transplanted into p53^e7/e7;chk1^MO hosts remained TUNEL-negative within an otherwise TUNEL-positive environment (FIG. 3E, lower panels). Therefore, IR-induced TUNEL reactivity of transplanted cells strictly depends on Chk1 dosage, occurs irrespective of the cellular environment, and has very little, if any, influence on neighboring cells. The Chk1-suppressed apoptotic pathway thus functions in a cell-autonomous manner.
Zebrafish embryos were fixed in 4% paraformaldehyde (PFA) overnight at 4° C. and subsequently stored in methanol at −20° C. for at least 2 hr. After rehydration at room temperature in PBST (1×PBS, 0.1% Tween-20), embryos were treated with proteinase K (10 μg/mL) in PBS for 15 min, followed by a 20-min postfix in 4% PFA at room temperature. […] Tagged DNA was detected with sheep anti-digoxigenin-fluorescein or sheep anti-digoxigenin-rhodamine conjugated Fab fragments. […]

“chk1 MO: morpholino against zebrafish chk1 atg/5'UTR, aggcacagccattatgcaatcttcg (SEQ ID NO: 11) (AGGCACAGCCATTATGCAATCTTCG; all phosphorodiamidate morpholino (PMO))”: the “grafted cells staining TUNEL-positive after IR” value amounted to 39%.
